Where two headings read alike, the source gives them in different places. Marks after values point to notes of the source that are not given here.
Experiments:
Format in all cases: cell-based
[1] = system: Candida albicans; test: Broth microdilution MIC, yeast (Example 13)
[2] = system: Candida glabrata; test: Broth microdilution MIC, yeast (Example 13)
[3] = system: Candida krusei; test: Broth microdilution MIC, yeast (Example 13)
[4] = system: Candida auris; test: Broth microdilution MIC, yeast (Example 13)
[5] = system: Aspergillus spp.; test: Broth microdilution MIC/MEC, mold (Example 13)
[6] = Candida albicans ATCC 90028, Susceptible, 24 hr
[7] = Candida albicans MMX 7053, Susceptible, 24 hr
[8] = Candida albicans MMX 7403, Susceptible, 24 hr
[9] = Candida albicans MMX 7430, Susceptible, 24 hr
[10] = Candida albicans MMX 7437, FLU-I, 24 hr
[11] = Candida glabrata ATCC 90030, Susceptible
[12] = Candida glabrata ATCC MYA-2950, Susceptible
[13] = Candida glabrata MMX 7087, Susceptible
[14] = Candida glabrata MMX 7111, Susceptible
[15] = Candida glabrata MMX 7549, Susceptible
[16] = C. krusei ATCC 14243, Susceptible
[17] = C. krusei ATCC 96685, Susceptible
[18] = C. krusei MMX 7125, Susceptible
[19] = C. krusei MMX 7128, Susceptible
[20] = C. krusei MMX 7141, Susceptible
[21] = C. krusei MMX 7155, Susceptible
[22] = C. krusei MMX 7563, Susceptible
[23] = C. krusei MMX 9878, MICA-I, VORI-I

SMILES: CC[C@H](C)C[C@H](C)CCCCCCCCC(=O)N[C@H]1C[C@@H](O)[C@@H](NCCN)NC(=O)[C@@H]2[C@@H](O)CCN2C(=O)[C@H]([C@H](O)CCN)NC(=O)[C@H]([C@H](O)[C@@H](O)c2ccc(O)cc2)NC(=O)[C@@H]2C[C@@H](O)CN2C(=O)[C@H]([C@@H](C)O)NC1=O [CASP]
- MIC2 (50% inhibition) [1, 6]: 0.06 µg/mL
- MIC2 (50% inhibition) ([1]; Candida albicans ATCC 204276, MICA-R, 24 hr): 0.25 µg/mL
- MIC2 (50% inhibition) ([1]; Candida albicans ATCC MYA-2732, FLU-R, VORI-I, 24 hr): 0.06 µg/mL
- MIC2 (50% inhibition) [1, 7]: 0.06 µg/mL
- MIC2 (50% inhibition) ([1]; Candida albicans MMX 7067, FLU-R, VORI-R, 24 hr): 0.06 µg/mL
- MIC2 (50% inhibition) [1, 8]: 0.06 µg/mL
- MIC2 (50% inhibition) ([1]; Candida albicans MMX 7424, CASP-R, MICA-R, 24 hr): 8 µg/mL
- MIC2 (50% inhibition) [1, 9]: 0.06 µg/mL
- MIC2 (50% inhibition) [1, 10]: 0.06 µg/mL
- MIC2 (50% inhibition) ([1]; Candida albicans MMX 7445, FLU-R, VORI-R, result after 48 hr incubation (insufficient growth at 24 hr)): 0.06^a μg/mL
- MIC2 (50% inhibition) [2, 11]: 0.12 µg/mL
- MIC2 (50% inhibition) [2, 12]: 0.12 µg/mL
- MIC2 (50% inhibition) [2, 13]: 0.12 µg/mL
- MIC2 (50% inhibition) ([2]; Candida glabrata MMX 7093, FLU-R): 0.12 µg/mL
- MIC2 (50% inhibition) ([2]; Candida glabrata MMX 7101, FLU-R): 0.12 µg/mL
- MIC2 (50% inhibition) ([2]; Candida glabrata MMX 7103, CASP-R, MICA-R): >8 µg/mL
- MIC2 (50% inhibition) [2, 14]: 0.12 µg/mL
- MIC2 (50% inhibition) ([2]; Candida glabrata MMX 7285, CASP-R, MICA-R): 0.5 µg/mL
- MIC2 (50% inhibition) ([2]; Candida glabrata MMX 7307, CASP-R, MICA-R, FLU-R): >8 µg/mL
- MIC2 (50% inhibition) [2, 15]: 0.06 µg/mL
- MIC2 (50% inhibition) ([3]; C. krusei ATCC 6258, MICA-I): 0.25 µg/mL
- MIC2 (50% inhibition) [3, 16]: 0.012 µg/mL
- MIC2 (50% inhibition) [3, 17]: 0.12 µg/mL
- MIC2 (50% inhibition) [3, 18]: 0.25 µg/mL
- MIC2 (50% inhibition) [3, 19]: 0.25 µg/mL
- MIC2 (50% inhibition) [3, 20]: 0.25 µg/mL
- MIC2 (50% inhibition) ([3]; C. krusei MMX 7153, MICA-R): 0.25 µg/mL
- MIC2 (50% inhibition) [3, 21]: 0.25 µg/mL
- MIC2 (50% inhibition) [3, 22]: 0.12 µg/mL
- MIC2 (50% inhibition) [3, 23]: 0.25 µg/mL
- MIC2 (50% inhibition) ([4]; C. auris MMX 9862, Susceptible): 0.12 µg/mL
- MIC2 (50% inhibition) ([4]; C. auris MMX 9863, FLU-R, VORI-R): 0.12^b μg/mL
- MIC2 (50% inhibition) ([4]; C. auris MMX 9864, FLU-R, VORI-R): 0.25^b μg/mL
- MIC2 (50% inhibition) ([4]; C. auris MMX 9865, FLU-R, VORI-R): 0.25^b μg/mL
- MIC2 (50% inhibition) ([4]; C. auris MMX 9866, FLU-R, VORI-R): 0.12^b μg/mL
- MIC2 (50% inhibition) ([4]; C. auris MMX 9867, FLU-R, VORI-R): 0.12 µg/mL
- MIC2 (50% inhibition) ([4]; C. auris MMX 9868, FLU-R, VORI-R): 0.25 µg/mL
- MIC2 (50% inhibition) ([4]; C. auris MMX 9869, FLU-R, VORI-R): 0.25 µg/mL
- MIC2 (50% inhibition) ([4]; C. auris MMX 9870, FLU-R, VORI-R): 0.25 µg/mL
- MIC2 (50% inhibition) ([4]; C. auris MMX 9871, Susceptible): 0.25^b μg/mL
- MEC (minimum effective concentration) ([5]; A. flavus ATCC 22546): 0.06 µg/mL
- MEC (minimum effective concentration) ([5]; A. flavus ATCC 204304): 0.06 µg/mL
- MEC (minimum effective concentration) ([5]; A. flavus MMX 7935): 0.03 µg/mL
- MEC (minimum effective concentration) ([5]; A. fumigatus ATCC 204305): 0.25 µg/mL
- MEC (minimum effective concentration) ([5]; A. fumigatus ATCC MYA-3626): 0.06 µg/mL
- MEC (minimum effective concentration) ([5]; A. fumigatus MMX 5934): 0.12 µg/mL
- MEC (minimum effective concentration) ([5]; A. fumigatus MMX 5938, 48 hr only, insufficient growth for 24 hr read): 0.12^b μg/mL
- MEC (minimum effective concentration) ([5]; A. fumigatus MMX 5939): 0.12 µg/mL
- MEC (minimum effective concentration) ([5]; A. niger ATCC 29508, 48 hr only, insufficient growth for 24 hr read): 0.06^b μg/mL
- MEC (minimum effective concentration) ([5]; A. terreus MMX 8229, 48 hr only, insufficient growth for 24 hr read): 0.12^b μg/mL

SMILES: OC(Cn1cncn1)(Cn1cncn1)c1ccc(F)cc1F [FLU]
- MIC2 (50% inhibition) [1, 6]: 0.25 µg/mL
- MIC2 (50% inhibition) [1, 7]: 0.12 µg/mL
- MIC2 (50% inhibition) [1, 8]: 1 µg/mL
- MIC2 (50% inhibition) [1, 9]: 0.5 µg/mL
- MIC2 (50% inhibition) [1, 10]: 4 µg/mL
- MIC2 (50% inhibition) [2, 11]: 8 µg/mL
- MIC2 (50% inhibition) [2, 12]: 8 µg/mL
- MIC2 (50% inhibition) [2, 13]: 1 µg/mL
- MIC2 (50% inhibition) [2, 14]: 2 µg/mL
- MIC2 (50% inhibition) [2, 15]: 4 µg/mL
- MIC2 (50% inhibition) [3]: 32 µg/mL
- MIC2 (50% inhibition) ([3]; C. krusei ATCC 6258, MICA-I): 16 µg/mL
- MIC2 (50% inhibition) [3, 16]: 16 µg/mL
- MIC2 (50% inhibition) [3, 17]: 32 µg/mL
- MIC2 (50% inhibition) [3, 18]: 32 µg/mL
- MIC2 (50% inhibition) [3, 19]: 16 µg/mL
- MIC2 (50% inhibition) [3, 20]: 16 µg/mL
- MIC2 (50% inhibition) [3, 21]: 32 µg/mL
- MIC2 (50% inhibition) [3, 22]: 32 µg/mL
- MIC2 (50% inhibition) [3, 23]: 64 µg/mL
- MIC2 (50% inhibition) [4]: >64 µg/mL
- MIC2 (50% inhibition) ([4]; C. auris MMX 9862, Susceptible): 2 µg/mL
- MIC2 (50% inhibition) ([4]; C. auris MMX 9871, Susceptible): >64 µg/mL
- MIC2 ([5]; A. flavus ATCC 22546): >64 µg/mL
- MIC2 ([5]; A. flavus ATCC 204304): >64 µg/mL
- MIC2 ([5]; A. flavus MMX 7935): >64 µg/mL
- MIC2 ([5]; A. fumigatus ATCC 204305): >64 µg/mL
- MIC2 ([5]; A. fumigatus ATCC MYA-3626): >64 µg/mL
- MIC2 ([5]; A. fumigatus MMX 5934): >64 µg/mL
- MIC2 ([5]; A. fumigatus MMX 5938): >64 µg/mL
- MIC2 ([5]; A. fumigatus MMX 5939): >64 µg/mL
- MIC2 ([5]; A. niger ATCC 29508): >64 µg/mL
- MIC2 ([5]; A. terreus MMX 8229): >64 µg/mL

Source: patent US12186283B2, “Bismuth-thiol compositions and methods of use” (Microbion Corporation, priority 2018, dated 2025)
